The text below walks through data of EP3040345A1, “Sodium channel subunits of pollinator insects and uses thereof” (Centre National de la Recherche Scientifique (CNRS), priority 2014, dated 2016).

Several values for one entry are separate records, joined by “and”; a condition that tells them apart may be missing. Identical values can stand only once. Entries after “also recorded” stand apart in the source; their conditions may differ.

For orientation: Hill coefficient means the slope factor of the fitted curve.

The target in one test is honeybee Para channel (Apis mellifera, UniProt C9D7C5). Description: Two-microelectrode voltage-clamp of Xenopus oocytes co-expressing Para channel and TipE; pyrethroid-induced tail currents. Type of test: cell-based. Conditions: for tail current induction: after conditioning pulses (-80mV to -20mV, 100 Hz), Para + TipE; for Hill coefficient: Hill fit of dose-response curve of tail current. As for the experimental part: Xenopus oocytes were handled in accordance with the principles and guidelines of the Université Laval animal protection committee and the Canadian Council on Animal Care. […] They were then treated with 2 mg/ml collagenase (Collagenase type 1A from Clostridium histolyticum, Sigma) in OR2 solution for 1 h. They were then incubated for at least 1 h at 18°C in OR3 solution. Stage IV and V oocytes were microinjected with mRNA corresponding to the Para channel and the selected regulatory subunit (1 µg/µl for Para and 0.3 µg/µl for regulatory subunits, 50 nl/oocyte). The injected oocytes were incubated at 18°C in OR3 solution for at least 12 h before taking recordings.
Chain of honeybee Para channel (C9D7C5 1-2044): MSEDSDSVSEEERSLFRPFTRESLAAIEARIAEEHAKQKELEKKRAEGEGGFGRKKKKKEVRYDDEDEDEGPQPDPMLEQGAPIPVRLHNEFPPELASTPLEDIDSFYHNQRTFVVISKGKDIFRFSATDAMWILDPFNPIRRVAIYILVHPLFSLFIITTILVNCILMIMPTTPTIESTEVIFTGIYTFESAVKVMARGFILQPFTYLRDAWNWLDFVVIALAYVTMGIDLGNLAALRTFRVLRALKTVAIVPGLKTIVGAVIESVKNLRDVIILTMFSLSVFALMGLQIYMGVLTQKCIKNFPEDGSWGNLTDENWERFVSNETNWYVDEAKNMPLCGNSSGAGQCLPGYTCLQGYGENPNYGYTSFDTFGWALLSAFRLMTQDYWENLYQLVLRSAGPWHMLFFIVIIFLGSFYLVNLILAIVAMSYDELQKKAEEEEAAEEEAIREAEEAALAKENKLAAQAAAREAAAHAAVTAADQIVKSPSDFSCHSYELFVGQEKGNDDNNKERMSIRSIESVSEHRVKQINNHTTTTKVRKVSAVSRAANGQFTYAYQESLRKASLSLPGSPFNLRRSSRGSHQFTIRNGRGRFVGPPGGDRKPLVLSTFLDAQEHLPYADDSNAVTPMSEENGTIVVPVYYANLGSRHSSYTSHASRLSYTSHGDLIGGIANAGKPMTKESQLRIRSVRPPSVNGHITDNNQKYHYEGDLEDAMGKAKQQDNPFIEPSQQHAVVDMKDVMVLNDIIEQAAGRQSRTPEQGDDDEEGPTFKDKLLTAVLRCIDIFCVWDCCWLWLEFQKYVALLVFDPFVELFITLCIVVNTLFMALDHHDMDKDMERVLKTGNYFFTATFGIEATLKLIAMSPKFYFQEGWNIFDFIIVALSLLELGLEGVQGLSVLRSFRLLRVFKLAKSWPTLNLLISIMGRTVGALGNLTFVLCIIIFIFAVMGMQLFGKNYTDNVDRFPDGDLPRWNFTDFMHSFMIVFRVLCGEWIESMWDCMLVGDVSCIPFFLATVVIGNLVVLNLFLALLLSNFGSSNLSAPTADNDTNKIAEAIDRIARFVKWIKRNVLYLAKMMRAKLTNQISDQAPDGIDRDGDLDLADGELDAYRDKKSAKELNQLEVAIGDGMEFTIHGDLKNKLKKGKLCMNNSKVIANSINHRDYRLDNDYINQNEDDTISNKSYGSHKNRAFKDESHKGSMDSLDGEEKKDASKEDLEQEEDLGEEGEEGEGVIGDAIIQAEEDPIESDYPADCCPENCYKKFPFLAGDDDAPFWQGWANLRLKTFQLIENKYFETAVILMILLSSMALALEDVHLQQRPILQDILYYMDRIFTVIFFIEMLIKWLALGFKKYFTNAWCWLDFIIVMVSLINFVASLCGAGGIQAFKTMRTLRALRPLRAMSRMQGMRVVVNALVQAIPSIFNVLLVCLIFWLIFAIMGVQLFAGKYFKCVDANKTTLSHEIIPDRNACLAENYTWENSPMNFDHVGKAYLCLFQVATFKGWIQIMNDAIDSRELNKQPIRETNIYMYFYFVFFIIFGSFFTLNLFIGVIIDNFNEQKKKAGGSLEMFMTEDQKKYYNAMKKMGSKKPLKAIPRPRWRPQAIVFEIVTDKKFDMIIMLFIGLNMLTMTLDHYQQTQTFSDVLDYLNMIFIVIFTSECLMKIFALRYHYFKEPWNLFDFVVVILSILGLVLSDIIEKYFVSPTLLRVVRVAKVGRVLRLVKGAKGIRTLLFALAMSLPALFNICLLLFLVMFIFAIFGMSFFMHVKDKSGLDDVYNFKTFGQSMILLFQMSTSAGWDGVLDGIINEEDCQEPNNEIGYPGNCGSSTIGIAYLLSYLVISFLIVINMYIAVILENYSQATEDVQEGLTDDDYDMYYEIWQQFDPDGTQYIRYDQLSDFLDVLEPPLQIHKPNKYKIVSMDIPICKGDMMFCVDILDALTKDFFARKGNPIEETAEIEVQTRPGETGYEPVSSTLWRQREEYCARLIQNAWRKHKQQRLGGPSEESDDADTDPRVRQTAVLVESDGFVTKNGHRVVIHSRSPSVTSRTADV
Macroscopic currents from mRNA-injected oocytes were recorded in Ringer's solution using the two-microelectrode voltage-clamp technique. The membrane potential for the two-microelectrode voltage-clamp technique was controlled using a Warner oocyte clamp (Warner Instrument Corp.). The currents were filtered at 5 kHz (-3 dB; four-pole Bessel filter). The headstage of the Warner amplifier was attached to a plastic pool containing a 3M NaCl solution through a silver chloride wire connected to the bath solution using an agar bridge. The bridge contained 3% agar (w/v), 500 mM NMDG, and 10 mM HEPES (pH 7.4) and was threaded with a thin platinum/iridium wire to lower high-frequency impedance.
The pH was adjusted to 7.6 at 22°C using 1 M NaOH.
The dose-response curves obtained from these calculations were fitted to a Hill curve using the following equation: M = (MMax)/(1 + ((EC50/dose))^h), [formula] where h is the Hill coefficient, Mmax is the maximal fraction of channels affected, EC50 is the half-maximal effective concentration, and dose is the concentration at which the observation was made.
Current decay and tail current kinetics were fitted to the following equation when a single exponential was used: [formula] and to the following equation when double exponential was used: [formula] where y0 is the initial value, A is the weight of the exponential, and τ is the time constant of the exponential.

The target in test [1] is sodium current of honeybee antennal olfactory receptor neurons. The conditions noted are these: Kadala A et al. 2011; cited from earlier work.
Another test deals with drosophila Para channel (Drosophila melanogaster, UniProt P35500). Conditions: read-out: EC50 for the drosophila channel; Vais H et al. 2003, ATX-II used to inhibit inactivation; cited from earlier work.
Chain of drosophila Para channel (P35500 whole entry): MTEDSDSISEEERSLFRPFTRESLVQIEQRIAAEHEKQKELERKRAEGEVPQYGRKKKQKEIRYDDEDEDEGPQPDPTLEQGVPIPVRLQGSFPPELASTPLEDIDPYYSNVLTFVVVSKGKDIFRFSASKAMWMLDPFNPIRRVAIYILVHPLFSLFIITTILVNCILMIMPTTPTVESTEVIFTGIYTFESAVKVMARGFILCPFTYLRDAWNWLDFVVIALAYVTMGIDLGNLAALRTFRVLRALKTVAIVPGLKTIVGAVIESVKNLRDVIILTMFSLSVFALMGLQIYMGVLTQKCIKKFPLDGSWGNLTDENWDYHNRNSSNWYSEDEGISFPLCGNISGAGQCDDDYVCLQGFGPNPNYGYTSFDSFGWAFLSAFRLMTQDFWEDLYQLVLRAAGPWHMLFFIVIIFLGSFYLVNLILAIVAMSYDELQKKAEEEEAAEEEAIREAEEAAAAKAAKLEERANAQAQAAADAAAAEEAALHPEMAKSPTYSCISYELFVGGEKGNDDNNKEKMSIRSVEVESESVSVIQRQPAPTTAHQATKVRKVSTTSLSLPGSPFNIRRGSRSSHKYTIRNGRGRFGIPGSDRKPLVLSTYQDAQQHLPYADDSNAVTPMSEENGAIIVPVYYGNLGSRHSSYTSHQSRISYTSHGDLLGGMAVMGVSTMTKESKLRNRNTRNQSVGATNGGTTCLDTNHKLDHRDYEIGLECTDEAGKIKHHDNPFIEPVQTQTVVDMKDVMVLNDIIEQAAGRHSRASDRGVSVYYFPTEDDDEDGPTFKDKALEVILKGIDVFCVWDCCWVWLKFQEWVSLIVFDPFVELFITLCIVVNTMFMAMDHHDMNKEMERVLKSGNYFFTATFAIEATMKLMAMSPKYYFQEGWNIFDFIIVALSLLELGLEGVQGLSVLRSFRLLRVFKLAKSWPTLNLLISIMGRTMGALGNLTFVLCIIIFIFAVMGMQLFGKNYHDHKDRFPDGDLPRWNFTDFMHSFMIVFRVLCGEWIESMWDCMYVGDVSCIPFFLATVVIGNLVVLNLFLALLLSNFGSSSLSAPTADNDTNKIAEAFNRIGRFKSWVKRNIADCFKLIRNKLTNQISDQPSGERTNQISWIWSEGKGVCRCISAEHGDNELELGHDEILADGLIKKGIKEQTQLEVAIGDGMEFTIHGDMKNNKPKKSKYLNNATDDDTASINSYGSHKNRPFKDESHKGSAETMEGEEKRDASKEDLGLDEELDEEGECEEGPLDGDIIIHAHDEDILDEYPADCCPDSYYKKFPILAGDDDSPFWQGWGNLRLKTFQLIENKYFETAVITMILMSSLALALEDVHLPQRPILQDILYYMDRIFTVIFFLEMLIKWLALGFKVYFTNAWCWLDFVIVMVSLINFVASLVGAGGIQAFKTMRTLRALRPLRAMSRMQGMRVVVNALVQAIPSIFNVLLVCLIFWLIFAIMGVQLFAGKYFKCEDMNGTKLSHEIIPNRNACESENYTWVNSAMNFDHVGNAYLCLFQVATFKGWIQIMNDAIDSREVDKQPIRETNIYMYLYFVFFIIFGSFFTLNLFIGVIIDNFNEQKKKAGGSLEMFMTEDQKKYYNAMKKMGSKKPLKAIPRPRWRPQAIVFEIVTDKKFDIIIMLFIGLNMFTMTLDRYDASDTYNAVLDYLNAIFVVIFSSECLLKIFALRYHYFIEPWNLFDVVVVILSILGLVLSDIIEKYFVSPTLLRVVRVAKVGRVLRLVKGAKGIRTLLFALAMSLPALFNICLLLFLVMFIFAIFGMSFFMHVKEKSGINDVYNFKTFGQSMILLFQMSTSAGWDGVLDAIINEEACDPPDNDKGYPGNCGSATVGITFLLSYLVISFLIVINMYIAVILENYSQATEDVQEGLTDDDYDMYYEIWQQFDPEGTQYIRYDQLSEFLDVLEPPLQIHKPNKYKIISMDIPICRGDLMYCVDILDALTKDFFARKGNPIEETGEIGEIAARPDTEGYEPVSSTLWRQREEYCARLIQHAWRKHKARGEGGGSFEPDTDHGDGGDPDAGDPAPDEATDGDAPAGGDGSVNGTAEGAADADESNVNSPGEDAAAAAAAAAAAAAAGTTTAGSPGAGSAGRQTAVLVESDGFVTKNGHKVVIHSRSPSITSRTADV

Consider `CC(C)C(C(=O)OC(C#N)c1cccc(Oc2ccccc2)c1)c1ccc(Cl)cc1` (centres unmarked) [fenvalerate], for which the tail current induction entry at honeybee Para channel (10 µM) is reported as “induced a tail current”. Moreover, at honeybee Para channel, the Hill coefficient is 1.1817 and 1.18. Moreover, at honeybee Para channel (double exponential fit), the “relative weight of the slow component of tail current deactivation” value came to 85.4%; the “time constant of tail current deactivation, first exponential” value turned out to be 9.9 s; the “time constant of tail current deactivation, second exponential” value is recorded as 31.8 s. Further, the EC50 on honeybee Para channel (fraction of channels bound vs dose, Hill fit, 1700 conditioning pulses, Para + TipE in oocytes, read-out: half maximal effective concentration (EC50)) was 289 nM and ~290 nM.
Regarding `CC1(C)C(C=C(Cl)Cl)C1C(=O)OCc1cccc(Oc2ccccc2)c1` (centres unmarked) [permethrin], the “shifts in activation, inactivation, or recovery from inactivation” value on honeybee Para channel (10 µM in extracellular medium, Para co-expressed with TipE) is “no significant effect; also recorded: did not induce statistically significant shifts”. In addition, the tail current induction entry at honeybee Para channel (10 µM) is on record as “induced tail currents”. The “number of conditioning pulses at which the maximal effect is reached” value at honeybee Para channel (10 µM, tail current amplitude) is reported as 200 pulses. The Hill coefficient at honeybee Para channel is 0.8263 and 0.83. Moreover, the “time constant of deactivation of tail currents (single exponential)” value at honeybee Para channel (single exponential fit) turned out to be 0.93 s. Moreover, the “inversion (reversal potential) of tail current” value on honeybee Para channel (tail current after 200 conditioning pulses, linear voltage-dependence) is given as “approximately +10 mV”. The figures for the EC50 (in test [1]; at drosophila Para channel) were 3500 nM and 12 nM, respectively.
